≈ marks a conversion by molar mass, not a printed value.
Tested on: Salmonella enterica
Assay: Antibacterial activity against Salmonella enterica ATCC 14028 by micro broth dilution method
Format: functional
Conditions: not given

Row | SMILES | MIC
1 | CCn1cc(C(=O)O)c(=O)c2cc(F)c(N3CCN(Cc4nc5ccc(Br)cc5[nH]4)CC3)cc21 | 8 µg/mL (≈ 15.1 µM)
2 | CCCCCCCCCCCCCCCCCCn1c(CN2CCN(c3cc4c(cc3F)c(=O)c(C(=O)O)cn4CC)CC2)nc2ccccc21 | 256 µg/mL (≈ 365 µM)
3 | O=C(O)c1cn(C2CC2)c2cc(N3CCN(c4nc5ccccc5[nH]4)CC3)c(F)cc2c1=O | 1 µg/mL (≈ 2.23 µM)
4 | CCn1cc(C(=O)O)c(=O)c2cc(F)c(N3CCN(Cc4nc5ccc([N+](=O)[O-])cc5[nH]4)CC3)cc21 | 4 µg/mL (≈ 8.09 µM)

Tested on: not listed separately
Assay: Antibacterial activity against Bacillus proteus ATCC 13315 by micro broth dilution method
Format: functional
Conditions: not given

Row | SMILES | MIC
5 | CCn1cc(C(=O)O)c(=O)c2cc(F)c(N3CCN(Cc4nc5ccc(Br)cc5[nH]4)CC3)cc21 | 4 µg/mL (≈ 7.57 µM)
6 | CCCCCCCCCCCCCCCCCCn1c(CN2CCN(c3cc4c(cc3F)c(=O)c(C(=O)O)cn4CC)CC2)nc2ccccc21 | 256 µg/mL (≈ 365 µM)
7 | O=C(O)c1cn(C2CC2)c2cc(N3CCN(c4nc5ccccc5[nH]4)CC3)c(F)cc2c1=O | 2 µg/mL (≈ 4.47 µM)
8 | CCn1cc(C(=O)O)c(=O)c2cc(F)c(N3CCN(Cc4nc5ccc([N+](=O)[O-])cc5[nH]4)CC3)cc21 | 2 µg/mL (≈ 4.04 µM)

Tested on: Escherichia coli
Assay: Antibacterial activity against Escherichia coli JM109 by micro broth dilution method
Format: functional
Conditions: not given

Row | SMILES | MIC
9 | CCn1cc(C(=O)O)c(=O)c2cc(F)c(N3CCN(Cc4nc5ccc(Br)cc5[nH]4)CC3)cc21 | 16 µg/mL (≈ 30.3 µM)
10 | CCCCCCCCCCCCCCCCCCn1c(CN2CCN(c3cc4c(cc3F)c(=O)c(C(=O)O)cn4CC)CC2)nc2ccccc21 | 256 µg/mL (≈ 365 µM)
11 | O=C(O)c1cn(C2CC2)c2cc(N3CCN(c4nc5ccccc5[nH]4)CC3)c(F)cc2c1=O | 2 µg/mL (≈ 4.47 µM)
12 | CCn1cc(C(=O)O)c(=O)c2cc(F)c(N3CCN(Cc4nc5ccc([N+](=O)[O-])cc5[nH]4)CC3)cc21 | 32 µg/mL (≈ 64.7 µM)

Tested on: Bacillus spizizenii
Assay: Antibacterial activity against Bacillus subtilis ATCC 6633 by micro broth dilution method
Format: functional
Conditions: not given

Row | SMILES | MIC
13 | CCn1cc(C(=O)O)c(=O)c2cc(F)c(N3CCN(Cc4nc5ccc(Br)cc5[nH]4)CC3)cc21 | 8 µg/mL (≈ 15.1 µM)
14 | CCCCCCCCCCCCCCCCCCn1c(CN2CCN(c3cc4c(cc3F)c(=O)c(C(=O)O)cn4CC)CC2)nc2ccccc21 | 128 µg/mL (≈ 182 µM)
15 | O=C(O)c1cn(C2CC2)c2cc(N3CCN(c4nc5ccccc5[nH]4)CC3)c(F)cc2c1=O | 2 µg/mL (≈ 4.47 µM)
16 | CCn1cc(C(=O)O)c(=O)c2cc(F)c(N3CCN(Cc4nc5ccc([N+](=O)[O-])cc5[nH]4)CC3)cc21 | 8 µg/mL (≈ 16.2 µM)

Tested on: not listed separately
Assay: Antifungal activity against Candida mycoderma ATCC 9888 after 24 hrs by micro broth dilution method
Format: functional
Conditions: Candida vini

Row | SMILES | MIC80
17 | CCn1cc(C(=O)O)c(=O)c2cc(F)c(N3CCN(Cc4nc5ccc(Br)cc5[nH]4)CC3)cc21 | 32 µg/mL (≈ 60.6 µM)
18 | CCCCCCCCCCCCCCCCCCn1c(CN2CCN(c3cc4c(cc3F)c(=O)c(C(=O)O)cn4CC)CC2)nc2ccccc21 | 64 µg/mL (≈ 91.2 µM)
19 | O=C(O)c1cn(C2CC2)c2cc(N3CCN(c4nc5ccccc5[nH]4)CC3)c(F)cc2c1=O | 16 µg/mL (≈ 35.8 µM)
20 | CCn1cc(C(=O)O)c(=O)c2cc(F)c(N3CCN(Cc4nc5ccc([N+](=O)[O-])cc5[nH]4)CC3)cc21 | 8 µg/mL (≈ 16.2 µM)

Tested on: Cyberlindnera jadinii
Assay: Antifungal activity against Candida utilis ATCC 9950 after 24 hrs by micro broth dilution method
Format: functional
Conditions: Williopsis jadinii, ATCC 9950, 24 h

Row | SMILES | MIC80
21 | CCn1cc(C(=O)O)c(=O)c2cc(F)c(N3CCN(Cc4nc5ccc(Br)cc5[nH]4)CC3)cc21 | 16 µg/mL (≈ 30.3 µM)
22 | CCCCCCCCCCCCCCCCCCn1c(CN2CCN(c3cc4c(cc3F)c(=O)c(C(=O)O)cn4CC)CC2)nc2ccccc21 | 64 µg/mL (≈ 91.2 µM)
23 | O=C(O)c1cn(C2CC2)c2cc(N3CCN(c4nc5ccccc5[nH]4)CC3)c(F)cc2c1=O | 4 µg/mL (≈ 8.94 µM)
24 | CCn1cc(C(=O)O)c(=O)c2cc(F)c(N3CCN(Cc4nc5ccc([N+](=O)[O-])cc5[nH]4)CC3)cc21 | 8 µg/mL (≈ 16.2 µM)

Tested on: Staphylococcus aureus
Assay: Antibacterial activity against Staphylococcus aureus ATCC 25923 by micro broth dilution method
Format: functional
Conditions: not given

Row | SMILES | MIC
25 | CCn1cc(C(=O)O)c(=O)c2cc(F)c(N3CCN(Cc4nc5ccc(Br)cc5[nH]4)CC3)cc21 | 64 µg/mL (≈ 121 µM)
26 | CCCCCCCCCCCCCCCCCCn1c(CN2CCN(c3cc4c(cc3F)c(=O)c(C(=O)O)cn4CC)CC2)nc2ccccc21 | 256 µg/mL (≈ 365 µM)
27 | O=C(O)c1cn(C2CC2)c2cc(N3CCN(c4nc5ccccc5[nH]4)CC3)c(F)cc2c1=O | 1 µg/mL (≈ 2.23 µM)
28 | CCn1cc(C(=O)O)c(=O)c2cc(F)c(N3CCN(Cc4nc5ccc([N+](=O)[O-])cc5[nH]4)CC3)cc21 | 16 µg/mL (≈ 32.4 µM)

Tested on: Shigella dysenteriae
Assay: Antibacterial activity against Shigella dysenteriae by micro broth dilution method
Format: functional
Conditions: not given

Row | SMILES | MIC
29 | CCn1cc(C(=O)O)c(=O)c2cc(F)c(N3CCN(Cc4nc5ccc(Br)cc5[nH]4)CC3)cc21 | 16 µg/mL (≈ 30.3 µM)
30 | CCCCCCCCCCCCCCCCCCn1c(CN2CCN(c3cc4c(cc3F)c(=O)c(C(=O)O)cn4CC)CC2)nc2ccccc21 | 256 µg/mL (≈ 365 µM)
31 | O=C(O)c1cn(C2CC2)c2cc(N3CCN(c4nc5ccccc5[nH]4)CC3)c(F)cc2c1=O | 0.5 µg/mL (≈ 1.12 µM)
32 | CCn1cc(C(=O)O)c(=O)c2cc(F)c(N3CCN(Cc4nc5ccc([N+](=O)[O-])cc5[nH]4)CC3)cc21 | 4 µg/mL (≈ 8.09 µM)

Tested on: Aspergillus flavus
Assay: Antifungal activity against Aspergillus flavus ATCC 204304 after 24 hrs by micro broth dilution method
Format: functional
Conditions: ATCC 204304, 24 h

Row | SMILES | MIC80
33 | CCn1cc(C(=O)O)c(=O)c2cc(F)c(N3CCN(Cc4nc5ccc(Br)cc5[nH]4)CC3)cc21 | 4 µg/mL (≈ 7.57 µM)
34 | CCCCCCCCCCCCCCCCCCn1c(CN2CCN(c3cc4c(cc3F)c(=O)c(C(=O)O)cn4CC)CC2)nc2ccccc21 | 64 µg/mL (≈ 91.2 µM)
35 | O=C(O)c1cn(C2CC2)c2cc(N3CCN(c4nc5ccccc5[nH]4)CC3)c(F)cc2c1=O | 1 µg/mL (≈ 2.23 µM)
36 | CCn1cc(C(=O)O)c(=O)c2cc(F)c(N3CCN(Cc4nc5ccc([N+](=O)[O-])cc5[nH]4)CC3)cc21 | 2 µg/mL (≈ 4.04 µM)

Tested on: Candida albicans
Assay: Antifungal activity against Candida albicans ATCC 10231 after 24 hrs by micro broth dilution method
Format: functional
Conditions: ATCC 10231, 24 h

Row | SMILES | MIC80
37 | CCn1cc(C(=O)O)c(=O)c2cc(F)c(N3CCN(Cc4nc5ccc(Br)cc5[nH]4)CC3)cc21 | 64 µg/mL (≈ 121 µM)
38 | CCCCCCCCCCCCCCCCCCn1c(CN2CCN(c3cc4c(cc3F)c(=O)c(C(=O)O)cn4CC)CC2)nc2ccccc21 | 128 µg/mL (≈ 182 µM)
39 | O=C(O)c1cn(C2CC2)c2cc(N3CCN(c4nc5ccccc5[nH]4)CC3)c(F)cc2c1=O | 2 µg/mL (≈ 4.47 µM)
40 | CCn1cc(C(=O)O)c(=O)c2cc(F)c(N3CCN(Cc4nc5ccc([N+](=O)[O-])cc5[nH]4)CC3)cc21 | 4 µg/mL (≈ 8.09 µM)

Tested on: Staphylococcus aureus
Assay: Antibacterial activity against methicillin-resistant Staphylococcus aureus N315 by micro broth dilution method
Format: functional
Conditions: not given

Row | SMILES | MIC
41 | CCn1cc(C(=O)O)c(=O)c2cc(F)c(N3CCN(Cc4nc5ccc(Br)cc5[nH]4)CC3)cc21 | 32 µg/mL (≈ 60.6 µM)
42 | CCCCCCCCCCCCCCCCCCn1c(CN2CCN(c3cc4c(cc3F)c(=O)c(C(=O)O)cn4CC)CC2)nc2ccccc21 | 128 µg/mL (≈ 182 µM)
43 | O=C(O)c1cn(C2CC2)c2cc(N3CCN(c4nc5ccccc5[nH]4)CC3)c(F)cc2c1=O | 0.5 µg/mL (≈ 1.12 µM)
44 | CCn1cc(C(=O)O)c(=O)c2cc(F)c(N3CCN(Cc4nc5ccc([N+](=O)[O-])cc5[nH]4)CC3)cc21 | 8 µg/mL (≈ 16.2 µM)

Tested on: Micrococcus luteus
Assay: Antibacterial activity against Micrococcus luteus ATCC 4698 by micro broth dilution method
Format: functional
Conditions: NCTC 2665

Row | SMILES | MIC
45 | CCn1cc(C(=O)O)c(=O)c2cc(F)c(N3CCN(Cc4nc5ccc(Br)cc5[nH]4)CC3)cc21 | 2 µg/mL (≈ 3.79 µM)
46 | CCCCCCCCCCCCCCCCCCn1c(CN2CCN(c3cc4c(cc3F)c(=O)c(C(=O)O)cn4CC)CC2)nc2ccccc21 | 128 µg/mL (≈ 182 µM)
47 | O=C(O)c1cn(C2CC2)c2cc(N3CCN(c4nc5ccccc5[nH]4)CC3)c(F)cc2c1=O | 1 µg/mL (≈ 2.23 µM)
48 | CCn1cc(C(=O)O)c(=O)c2cc(F)c(N3CCN(Cc4nc5ccc([N+](=O)[O-])cc5[nH]4)CC3)cc21 | 1 µg/mL (≈ 2.02 µM)

Tested on: Escherichia coli
Assay: Antibacterial activity against Escherichia coli DH52 by micro broth dilution method
Format: functional
Conditions: not given

Row | SMILES | MIC
49 | CCn1cc(C(=O)O)c(=O)c2cc(F)c(N3CCN(Cc4nc5ccc(Br)cc5[nH]4)CC3)cc21 | 16 µg/mL (≈ 30.3 µM)
50 | CCCCCCCCCCCCCCCCCCn1c(CN2CCN(c3cc4c(cc3F)c(=O)c(C(=O)O)cn4CC)CC2)nc2ccccc21 | 256 µg/mL (≈ 365 µM)
51 | O=C(O)c1cn(C2CC2)c2cc(N3CCN(c4nc5ccccc5[nH]4)CC3)c(F)cc2c1=O | 1 µg/mL (≈ 2.23 µM)
52 | CCn1cc(C(=O)O)c(=O)c2cc(F)c(N3CCN(Cc4nc5ccc([N+](=O)[O-])cc5[nH]4)CC3)cc21 | 8 µg/mL (≈ 16.2 µM)

Tested on: Pseudomonas aeruginosa
Assay: Antibacterial activity against Pseudomonas aeruginosa ATCC 27853 by micro broth dilution method
Format: functional
Conditions: not given

Row | SMILES | MIC
53 | CCn1cc(C(=O)O)c(=O)c2cc(F)c(N3CCN(Cc4nc5ccc(Br)cc5[nH]4)CC3)cc21 | 2 µg/mL (≈ 3.79 µM)
54 | CCCCCCCCCCCCCCCCCCn1c(CN2CCN(c3cc4c(cc3F)c(=O)c(C(=O)O)cn4CC)CC2)nc2ccccc21 | 256 µg/mL (≈ 365 µM)
55 | O=C(O)c1cn(C2CC2)c2cc(N3CCN(c4nc5ccccc5[nH]4)CC3)c(F)cc2c1=O | 0.5 µg/mL (≈ 1.12 µM)
56 | CCn1cc(C(=O)O)c(=O)c2cc(F)c(N3CCN(Cc4nc5ccc([N+](=O)[O-])cc5[nH]4)CC3)cc21 | 2 µg/mL (≈ 4.04 µM)

Tested on: Saccharomyces cerevisiae
Assay: Antifungal activity against Saccharomyces cerevisiae ATCC 9763 after 24 hrs by micro broth dilution method
Format: functional
Conditions: ATCC 9763, 24 h

Row | SMILES | MIC80
57 | CCn1cc(C(=O)O)c(=O)c2cc(F)c(N3CCN(Cc4nc5ccc(Br)cc5[nH]4)CC3)cc21 | 16 µg/mL (≈ 30.3 µM)
58 | CCCCCCCCCCCCCCCCCCn1c(CN2CCN(c3cc4c(cc3F)c(=O)c(C(=O)O)cn4CC)CC2)nc2ccccc21 | 128 µg/mL (≈ 182 µM)
59 | O=C(O)c1cn(C2CC2)c2cc(N3CCN(c4nc5ccccc5[nH]4)CC3)c(F)cc2c1=O | 1 µg/mL (≈ 2.23 µM)
60 | CCn1cc(C(=O)O)c(=O)c2cc(F)c(N3CCN(Cc4nc5ccc([N+](=O)[O-])cc5[nH]4)CC3)cc21 | 16 µg/mL (≈ 32.4 µM)
